The supplement of paper PMC5908809

How the values were obtained:
[1] = system: normal NK cells expanded with K562-aAPC; assay: percent inhibition of viability; higher = more inhibition; conditions: 72 h, IL-2 2.5 ng/mL
Experimental: (§1)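 Drug sensitivity and resistance testing on K562-aAPC-expanded normal NK cells: 5 concentrations (10-fold steps over a 10,000-fold range), 72 h at 37 °C, viability by CellTiter-Glo normalised to DMSO and benzethonium chloride controls; DSS from the fitted curve.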

DERL-7 (IL-2 2.5 ng/mL) [2] = assay: as above; conditions: 72 h
IMC-1 (IL-2 20 ng/mL) [3] = assay: as above; conditions: 72 h
KAI3 (IL-2 2.5 ng/mL) [4] = assay: as above; conditions: 72 h
KHYG-1 (IL-2 2.5 ng/mL) [5] = assay: as above; conditions: 72 h
NK-92 (IL-2 2.5 ng/mL) [6] = assay: as above; conditions: 72 h
NK-YS (IL-2 2.5 ng/mL) [7] = assay: as above; conditions: 72 h
NKL (IL-2 2.5 ng/mL) [8] = assay: as above; conditions: 72 h
SNK-6 (IL-2 2.5 ng/mL) [9] = assay: as above; conditions: 72 h
YT (IL-2 2.5 ng/mL) [10] = assay: as above; conditions: 72 h
[11] = system: normal primary NK cells, pool 1 (3 donors) (IL-2 2.5 ng/mL); assay: as above; conditions: 72 h
[12] = system: normal primary NK cells, pool 1 (3 donors), resting (IL-2 0 ng/mL); assay: as above; conditions: 72 h
[13] = system: normal primary NK cells, pool 2 (3 donors) (IL-2 2.5 ng/mL); assay: as above; conditions: 72 h
[14] = system: normal primary NK cells, pool 3 (3 donors) (IL-2 2.5 ng/mL); assay: as above; conditions: 72 h
[15] = system: normal NK cells expanded with K562-aAPC; assay: drug sensitivity score (DSS) (DSS units); higher = more sensitive; extreme values may be limits of the assay; conditions: 72 h; IL-2 2.5 ng/mL
Experimental: as §1

DERL-7 (IL-2 2.5 ng/mL) [16] = assay: as above; conditions: 72 h
IMC-1 (IL-2 20 ng/mL) [17] = assay: as above; conditions: 72 h
KAI3 (IL-2 2.5 ng/mL) [18] = assay: as above; conditions: 72 h
KHYG-1 (IL-2 2.5 ng/mL) [19] = assay: as above; conditions: 72 h
NK-92 (IL-2 2.5 ng/mL) [20] = assay: as above; conditions: 72 h
NK-YS (IL-2 2.5 ng/mL) [21] = assay: as above; conditions: 72 h
NKL (IL-2 2.5 ng/mL) [22] = assay: as above; conditions: 72 h
SNK-6 (IL-2 2.5 ng/mL) [23] = assay: as above; conditions: 72 h
YT (IL-2 2.5 ng/mL) [24] = assay: as above; conditions: 72 h
[25] = system: normal primary NK cells, pool 1 (3 donors) (IL-2 2.5 ng/mL); assay: as above; conditions: 72 h
[26] = system: normal primary NK cells, pool 1 (3 donors), resting (IL-2 0 ng/mL); assay: as above; conditions: 72 h
[27] = system: normal primary NK cells, pool 2 (3 donors) (IL-2 2.5 ng/mL); assay: as above; conditions: 72 h
[28] = system: normal primary NK cells, pool 3 (3 donors) (IL-2 2.5 ng/mL); assay: as above; conditions: 72 h

CC(=O)OC[C@H]1O[C@@H]([S-])[C@H](OC(C)=O)[C@@H](OC(C)=O)[C@@H]1OC(C)=O.CCP(CC)CC.[Au+] [Auranofin] (max concentration tested 2500 nM)
percent inhibition of viability [%]
Conditions | 0.25 nM | 2.5 nM | 25 nM | 250 nM | 2500 nM
DERL-7 (IL-2 2.5 ng/mL) [2] | -0.63 | 7.06 | 8.16 | 44.6 | 98.2
IMC-1 (IL-2 20 ng/mL) [3] | -3.33 | -1.53 | 4.17 | 1.71 | 99.3
KAI3 (IL-2 2.5 ng/mL) [4] | -6.77 | -2.1 | -2.36 | -3.59 | 71.4
KHYG-1 (IL-2 2.5 ng/mL) [5] | 0.4 | -2.1 | 1.71 | 13.8 | 104
NK-92 (IL-2 2.5 ng/mL) [6] | -2.57 | -12.2 | -2.23 | -0.04 | 98.4
NK-YS (IL-2 2.5 ng/mL) [7] | -7.49 | -6.18 | -3.6 | 9.95 | 84.9
NKL (IL-2 2.5 ng/mL) [8] | -10.3 | -9.31 | -24.6 | 52.6 | 106
SNK-6 (IL-2 2.5 ng/mL) [9] | 13.5 | 17.1 | 4.84 | 33.2 | 86
YT (IL-2 2.5 ng/mL) [10] | -4.83 | -3.66 | 0.33 | -3.85 | 101
[1] | 1.15 | -1.41 | -0.3 | 33.5 | 100
[11] | -6.81 | -8.13 | 21.6 | 92.8 | 100
[12] | 5.52 | -6.64 | 48.2 | 92.5 | 99.7
[13] | -13.4 | -6.97 | 8.16 | 82.7 | 101
[14] | -4.42 | 1.03 | 18.4 | 81.8 | 101

Conditions | drug sensitivity score
DERL-7 (IL-2 2.5 ng/mL) [16] | 10.6
IMC-1 (IL-2 20 ng/mL) [17] | 5.76
KAI3 (IL-2 2.5 ng/mL) [18] | 3.64
KHYG-1 (IL-2 2.5 ng/mL) [19] | 7.93
NK-92 (IL-2 2.5 ng/mL) [20] | 5.5
NK-YS (IL-2 2.5 ng/mL) [21] | 6.36
NKL (IL-2 2.5 ng/mL) [22] | 11.9
SNK-6 (IL-2 2.5 ng/mL) [23] | 8.77
YT (IL-2 2.5 ng/mL) [24] | 5.39
[15] | 10.2
[25] | 19.7
[26] | 23.7
[27] | 16.3
[28] | 17.4

C[C@@H]1C[C@H]2[C@@H]3CCC4=CC(=O)C=C[C@]4(C)[C@@]3(F)[C@@H](O)C[C@]2(C)[C@@]1(O)C(=O)CO [Dexamethasone] (max concentration tested 10000 nM)
percent inhibition of viability [%]
Conditions | 1 nM | 10 nM | 100 nM | 1000 nM | 10000 nM
DERL-7 (IL-2 2.5 ng/mL) [2] | -2.49 | 63.1 | 100 | 101 | 101
IMC-1 (IL-2 20 ng/mL) [3] | -2.17 | -4.52 | -10.6 | -12.7 | -2.61
KAI3 (IL-2 2.5 ng/mL) [4] | -8.83 | -13.5 | -3.07 | -3.87 | 31.2
KHYG-1 (IL-2 2.5 ng/mL) [5] | -1.02 | 14.1 | 39.9 | 50.3 | 69.1
NK-92 (IL-2 2.5 ng/mL) [6] | -14.3 | -20.1 | -19.3 | -2.77 | 5.06
NK-YS (IL-2 2.5 ng/mL) [7] | -5.2 | -1.29 | 1.38 | 4.74 | 18.8
NKL (IL-2 2.5 ng/mL) [8] | 12.3 | 38.1 | 57.3 | 64.1 | 67.1
SNK-6 (IL-2 2.5 ng/mL) [9] | -0.75 | -7.56 | -4.28 | -3.37 | 8.99
YT (IL-2 2.5 ng/mL) [10] | -0.83 | 11.3 | 22.4 | 36.4 | 45.4
[1] | 1.98 | 35.4 | 61.5 | 68.6 | 77.8
[11] | 2.6 | 42 | 68.9 | 80.5 | 86.6
[12] | 8.34 | 65.5 | 83.1 | 84.5 | 86.9
[13] | 2.03 | 37.3 | 63.2 | 69.1 | 74.5
[14] | -8.83 | 19.5 | 43.5 | 50.7 | 58

Conditions | drug sensitivity score
DERL-7 (IL-2 2.5 ng/mL) [16] | 37.9
IMC-1 (IL-2 20 ng/mL) [17] | 0
KAI3 (IL-2 2.5 ng/mL) [18] | 1.14
KHYG-1 (IL-2 2.5 ng/mL) [19] | 15.6
NK-92 (IL-2 2.5 ng/mL) [20] | 0
NK-YS (IL-2 2.5 ng/mL) [21] | 1.07
NKL (IL-2 2.5 ng/mL) [22] | 24.6
SNK-6 (IL-2 2.5 ng/mL) [23] | 0
YT (IL-2 2.5 ng/mL) [24] | 9.59
[15] | 25.3
[25] | 28.9
[26] | 35.4
[27] | 26
[28] | 17.3

C[C@@H]1CN(CC(=O)Nc2ccc3c(c2)Cc2cccc(-c4cc(=O)cc(N5CCOCC5)o4)c2S3)C[C@H](C)O1 (max concentration tested 25000 nM)
percent inhibition of viability [%]
Conditions | 2.5 nM | 25 nM | 250 nM | 2500 nM | 25000 nM
DERL-7 (IL-2 2.5 ng/mL) [2] | -2 | -3.36 | -4.44 | 13 | 85.2
IMC-1 (IL-2 20 ng/mL) [3] | -9.5 | -5.69 | -6.07 | 2.99 | 98.3
KAI3 (IL-2 2.5 ng/mL) [4] | 5.88 | 0.49 | -7.91 | 18.6 | 87.2
KHYG-1 (IL-2 2.5 ng/mL) [5] | -6.23 | -8.72 | -3.2 | 18.6 | 107
NK-92 (IL-2 2.5 ng/mL) [6] | -7.1 | -15.1 | -2.57 | 18.6 | 101
NK-YS (IL-2 2.5 ng/mL) [7] | -6.64 | -9 | -7.16 | 8.32 | 84.3
NKL (IL-2 2.5 ng/mL) [8] | -13.9 | -22.8 | -12.4 | 24.9 | 71
SNK-6 (IL-2 2.5 ng/mL) [9] | -10.7 | -10.4 | -8.37 | 9 | 100
YT (IL-2 2.5 ng/mL) [10] | -6.13 | -5.84 | -0.59 | 8.43 | 96.4
[1] | -9.26 | -9.66 | -11.6 | -3.45 | 56.6
[11] | -8.95 | -10.4 | -7.4 | 10 | 91.3
[12] | 10.2 | 6.26 | 7.45 | 30.7 | 89
[13] | -2.96 | -5.92 | 1.66 | 7.62 | 69.8
[14] | -1.38 | 0.2 | 6.37 | -0.76 | 59.3

Conditions | drug sensitivity score
DERL-7 (IL-2 2.5 ng/mL) [16] | 6.89
IMC-1 (IL-2 20 ng/mL) [17] | 5.86
KAI3 (IL-2 2.5 ng/mL) [18] | 7.81
KHYG-1 (IL-2 2.5 ng/mL) [19] | 8.65
NK-92 (IL-2 2.5 ng/mL) [20] | 8.57
NK-YS (IL-2 2.5 ng/mL) [21] | 6.02
NKL (IL-2 2.5 ng/mL) [22] | 7.43
SNK-6 (IL-2 2.5 ng/mL) [23] | 6.99
YT (IL-2 2.5 ng/mL) [24] | 6.69
[15] | 2.76
[25] | 6.71
[26] | 8.7
[27] | 5.1
[28] | 3.14
